Laboratory results from ChEMBL document CHEMBL4321812, “Structure-based rational design of staurosporine-based fluorescent probe with broad-ranging kinase affinity for kinase panel application” (Bioorg Med Chem Lett, 2019).

Columns and labels:
[1] = target: Interleukin-1 receptor-associated kinase 4 (Homo sapiens, UniProt Q9NWZ3); assay: Binding affinity to recombinant full-length human N-terminal his-tagged IRAK4 expressed in baculovirus expression system using IRAK1 peptide as substrate incubated for 1 hr by TR-FRET assay
[2] = target: Ribosomal protein S6 kinase alpha-1 (Homo sapiens, UniProt Q15418); assay: Binding affinity to recombinant full length human N-terminal GST-tagged RPS6KA1 expressed in baculovirus expression system using S6K peptide as substrate incubated for 1 hr by TR-FRET assay
[3] = target: Receptor tyrosine-protein kinase erbB-4 (Homo sapiens, UniProt Q15303); assay: Binding affinity to recombinant human full-length N-terminal GST-tagged ERBB4 expressed in baculovirus expression system using srctide as substrate incubated for 1 hr by TR-FRET assay
[4] = target: Serine/threonine-protein kinase Sgk2 (Homo sapiens, UniProt Q9HBY8); assay: Binding affinity to recombinant full-length N-terminal His-FLAG-tagged SGK2 (unknown origin) expressed in baculovirus infected Sf9 insect cells incubated for 1 hr by TR-FRET assay
[5] = target: Mitogen-activated protein kinase kinase kinase 2 (Homo sapiens, UniProt Q9Y2U5); assay: Binding affinity to recombinant full-length N-terminal His-FLAG-GST-tagged MAP3K2 (unknown origin) (337 to 620 residues) expressed in baculovirus infected Sf9 insect cells incubated for 1 hr by TR-FRET assay
[6] = target: Tyrosine-protein kinase Tec (Homo sapiens, UniProt P42680); assay: Binding affinity to recombinant human N-terminal GST-tagged TEC (359 to 631 residues) expressed in baculovirus expression system using Srctide as substrate incubated for 1 hr by TR-FRET assay
[7] = target: Vascular endothelial growth factor receptor 3 (Homo sapiens, UniProt P35916); assay: Binding affinity to recombinant N-terminal His-FLAG-GST-tagged FLT4 (unknown origin) (798 to 1298 residues) expressed in baculovirus infected Sf9 insect cells incubated for 1 hr by TR-FRET assay
Activated CDC42 kinase 1 = Activated CDC42 kinase 1 (Homo sapiens, UniProt Q07912); assay: Binding affinity to recombinant N-terminal His-FLAG-GST-tagged TNK2 (unknown origin) (110 to 476 residues) expressed in baculovirus infected Sf9 insect cells incubated for 1 hr by TR-FRET assay
[8] = target: Calcium/calmodulin-dependent protein kinase type II subunit gamma (Homo sapiens, UniProt Q13555); assay: Binding affinity to recombinant full-length N-terminal His-FLAG-GST-tagged CAMK2G (unknown origin) expressed in baculovirus infected Sf9 insect cells incubated for 1 hr in presence of calmodulin by TR-FRET assay
[9] = target: Tyrosine-protein kinase Fer (Homo sapiens, UniProt P16591); assay: Binding affinity to recombinant full-length N-terminal His-FLAG-GST-tagged FER (unknown origin) expressed in baculovirus infected Sf9 insect cells incubated for 1 hr by TR-FRET assay
[10] = target: Mitogen-activated protein kinase 12 (Homo sapiens, UniProt P53778); assay: Binding affinity to recombinant full-length N-terminal His-FLAG-GST-tagged MAPK12 (unknown origin) expressed in baculovirus infected Sf9 insect cells incubated for 1 hr by TR-FRET assay
[11] = target: Tyrosine-protein kinase HCK (Homo sapiens, UniProt P08631); assay: Binding affinity to recombinant full-length N-terminal His-FLAG-GST-tagged HCK (unknown origin) (25 to 526 residues) expressed in baculovirus infected Sf9 insect cells incubated for 1 hr by TR-FRET assay
[12] = target: Serine/threonine-protein kinase ULK3 (Homo sapiens, UniProt Q6PHR2); assay: Binding affinity to recombinant full-length N-terminal His-FLAG-GST-tagged ULK3 (unknown origin) expressed in baculovirus infected Sf9 insect cells incubated for 1 hr by TR-FRET assay
[13] = target: Testis-specific serine/threonine-protein kinase 3 (Homo sapiens, UniProt Q96PN8); assay: Binding affinity to recombinant full-length N-terminal His-FLAG-GST-tagged TSSK3 (unknown origin) expressed in baculovirus infected Sf9 insect cells incubated for 1 hr by TR-FRET assay
[14] = target: Myosin light chain kinase, smooth muscle (Homo sapiens, UniProt Q15746); assay: Binding affinity to recombinant full-length N-terminal His-FLAG-GST-tagged MYLK (unknown origin) (1428 to 1771 residues) expressed in baculovirus infected Sf9 insect cells incubated for 1 hr by TR-FRET assay
[15] = target: TRAF2 and NCK-interacting protein kinase (Homo sapiens, UniProt Q9UKE5); assay: Binding affinity to recombinant full-length N-terminal His-FLAG-GST-tagged TNIK (unknown origin) (1 to 314 residues) expressed in baculovirus infected Sf9 insect cells incubated for 1 hr by TR-FRET assay
[16] = target: cGMP-dependent protein kinase 1 (Homo sapiens, UniProt Q13976); assay: Binding affinity to recombinant full-length N-terminal His-FLAG-tagged PRKG1 (unknown origin) expressed in baculovirus infected Sf9 insect cells incubated for 1 hr by TR-FRET assay
[17] = target: Serine/threonine-protein kinase 33 (Homo sapiens, UniProt Q9BYT3); assay: Binding affinity to recombinant full-length N-terminal His-FLAG-GST-tagged STK33 (unknown origin) expressed in baculovirus infected Sf9 insect cells incubated for 1 hr by TR-FRET assay
CDK9/cyclin T1 = CDK9/cyclin T1 (Homo sapiens, UniProt P50750); assay: Binding affinity to recombinant human full length N-terminal GST-tagged CDK9 co-expressed with full length N-terminal His-tagged CyclinT1 expressed in baculovirus expression system using CDK9 substrate incubated for 1 hr by TR-FRET assay
[18] = target: Protein kinase C theta type (Homo sapiens, UniProt Q04759); assay: Binding affinity to recombinant full-length N-terminal His-GST-tagged PRKCQ (unknown origin) expressed in baculovirus infected Sf9 insect cells incubated for 1 hr by TR-FRET assay
[19] = target: Serine/threonine-protein kinase PLK4 (Homo sapiens, UniProt O00444); assay: Binding affinity to recombinant full-length N-terminal His-FLAG-GST-tagged PLK4 (unknown origin) (1 to 836 residues) expressed in baculovirus infected Sf9 insect cells incubated for 1 hr by TR-FRET assay
[20] = target: Death-associated protein kinase 3 (Homo sapiens, UniProt O43293); assay: Binding affinity to recombinant full-length N-terminal His-FLAG-GST-tagged DAPK3 (unknown origin) expressed in baculovirus infected Sf9 insect cells incubated for 1 hr by TR-FRET assay
[21] = target: MAP/microtubule affinity-regulating kinase 3 (Homo sapiens, UniProt P27448); assay: Binding affinity to recombinant full-length N-terminal His-FLAG-GST-tagged MARK3 (unknown origin) expressed in baculovirus infected Sf9 insect cells incubated for 1 hr by TR-FRET assay
[22] = target: Dual specificity tyrosine-phosphorylation-regulated kinase 1B (Homo sapiens, UniProt Q9Y463); assay: Binding affinity to recombinant full-length N-terminal His-FLAG-tagged DYRK1B (unknown origin) expressed in baculovirus infected Sf9 insect cells incubated for 1 hr by TR-FRET assay

Interleukin-1 receptor-associated kinase 4, sequence (Q9NWZ3 whole entry): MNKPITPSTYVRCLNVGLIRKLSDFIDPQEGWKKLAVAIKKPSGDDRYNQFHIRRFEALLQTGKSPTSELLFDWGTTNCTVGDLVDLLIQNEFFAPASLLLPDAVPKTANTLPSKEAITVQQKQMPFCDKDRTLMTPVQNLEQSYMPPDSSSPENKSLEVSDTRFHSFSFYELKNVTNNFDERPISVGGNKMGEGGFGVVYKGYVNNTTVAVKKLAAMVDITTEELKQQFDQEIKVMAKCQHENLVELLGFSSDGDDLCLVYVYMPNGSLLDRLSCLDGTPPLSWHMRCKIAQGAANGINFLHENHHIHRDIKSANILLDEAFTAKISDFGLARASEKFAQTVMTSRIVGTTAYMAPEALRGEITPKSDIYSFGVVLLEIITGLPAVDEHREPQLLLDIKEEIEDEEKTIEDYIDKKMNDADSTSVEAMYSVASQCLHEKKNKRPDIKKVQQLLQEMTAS
Tyrosine-protein kinase HCK, sequence (P08631 whole entry, the tested form may be a part): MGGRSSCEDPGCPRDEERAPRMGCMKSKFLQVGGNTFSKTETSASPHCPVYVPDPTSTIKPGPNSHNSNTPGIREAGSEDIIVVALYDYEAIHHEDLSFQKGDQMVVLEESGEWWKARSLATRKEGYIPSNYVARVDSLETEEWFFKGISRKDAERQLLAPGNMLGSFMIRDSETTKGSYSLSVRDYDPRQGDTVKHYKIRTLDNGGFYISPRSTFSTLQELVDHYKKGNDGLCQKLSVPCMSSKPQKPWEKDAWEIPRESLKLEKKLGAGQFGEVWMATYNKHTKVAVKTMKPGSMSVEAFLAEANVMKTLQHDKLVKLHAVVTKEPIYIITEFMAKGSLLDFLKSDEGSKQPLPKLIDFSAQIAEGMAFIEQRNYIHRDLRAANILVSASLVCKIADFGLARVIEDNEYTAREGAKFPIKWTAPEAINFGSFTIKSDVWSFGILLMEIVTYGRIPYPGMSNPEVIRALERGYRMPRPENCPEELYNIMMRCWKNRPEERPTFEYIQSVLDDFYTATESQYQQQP
MAP/microtubule affinity-regulating kinase 3, sequence (P27448 whole entry): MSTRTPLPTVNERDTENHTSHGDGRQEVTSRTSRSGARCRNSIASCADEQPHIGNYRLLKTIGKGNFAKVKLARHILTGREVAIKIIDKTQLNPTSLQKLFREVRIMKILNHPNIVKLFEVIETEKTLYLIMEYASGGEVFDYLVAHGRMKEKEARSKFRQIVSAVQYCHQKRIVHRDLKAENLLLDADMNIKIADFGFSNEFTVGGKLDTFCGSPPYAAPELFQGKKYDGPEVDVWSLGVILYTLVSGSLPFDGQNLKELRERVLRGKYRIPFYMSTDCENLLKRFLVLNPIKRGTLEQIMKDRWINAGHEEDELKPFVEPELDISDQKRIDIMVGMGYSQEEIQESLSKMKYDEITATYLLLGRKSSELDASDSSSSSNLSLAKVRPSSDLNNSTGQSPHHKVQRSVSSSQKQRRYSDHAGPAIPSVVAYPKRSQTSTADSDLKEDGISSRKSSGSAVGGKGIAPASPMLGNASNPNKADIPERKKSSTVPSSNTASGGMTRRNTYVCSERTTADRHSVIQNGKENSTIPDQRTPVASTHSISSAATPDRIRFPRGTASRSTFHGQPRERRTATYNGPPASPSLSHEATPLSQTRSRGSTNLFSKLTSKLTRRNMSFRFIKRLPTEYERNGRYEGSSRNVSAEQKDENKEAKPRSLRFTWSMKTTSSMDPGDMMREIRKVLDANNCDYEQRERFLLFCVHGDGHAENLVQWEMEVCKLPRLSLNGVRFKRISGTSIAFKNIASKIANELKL
Mitogen-activated protein kinase kinase kinase 2, sequence (Q9Y2U5 whole entry, the tested form may be a part): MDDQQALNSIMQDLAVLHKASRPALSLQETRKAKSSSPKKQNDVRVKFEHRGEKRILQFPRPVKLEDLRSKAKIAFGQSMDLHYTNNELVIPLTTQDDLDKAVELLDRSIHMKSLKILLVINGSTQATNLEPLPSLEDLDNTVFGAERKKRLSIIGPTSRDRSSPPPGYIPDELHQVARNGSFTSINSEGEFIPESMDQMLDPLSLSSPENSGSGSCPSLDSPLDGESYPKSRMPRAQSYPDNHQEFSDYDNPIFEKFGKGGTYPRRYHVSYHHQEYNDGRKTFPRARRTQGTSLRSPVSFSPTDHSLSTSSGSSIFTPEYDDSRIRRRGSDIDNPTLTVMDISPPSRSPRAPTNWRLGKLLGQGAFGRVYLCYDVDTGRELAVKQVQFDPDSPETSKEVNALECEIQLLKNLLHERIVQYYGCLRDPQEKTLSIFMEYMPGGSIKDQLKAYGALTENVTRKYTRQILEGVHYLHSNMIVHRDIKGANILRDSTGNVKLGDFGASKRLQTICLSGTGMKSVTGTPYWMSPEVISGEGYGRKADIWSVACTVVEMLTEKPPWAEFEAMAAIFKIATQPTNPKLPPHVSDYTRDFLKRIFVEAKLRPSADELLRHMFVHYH
Receptor tyrosine-protein kinase erbB-4, sequence (Q15303 whole entry): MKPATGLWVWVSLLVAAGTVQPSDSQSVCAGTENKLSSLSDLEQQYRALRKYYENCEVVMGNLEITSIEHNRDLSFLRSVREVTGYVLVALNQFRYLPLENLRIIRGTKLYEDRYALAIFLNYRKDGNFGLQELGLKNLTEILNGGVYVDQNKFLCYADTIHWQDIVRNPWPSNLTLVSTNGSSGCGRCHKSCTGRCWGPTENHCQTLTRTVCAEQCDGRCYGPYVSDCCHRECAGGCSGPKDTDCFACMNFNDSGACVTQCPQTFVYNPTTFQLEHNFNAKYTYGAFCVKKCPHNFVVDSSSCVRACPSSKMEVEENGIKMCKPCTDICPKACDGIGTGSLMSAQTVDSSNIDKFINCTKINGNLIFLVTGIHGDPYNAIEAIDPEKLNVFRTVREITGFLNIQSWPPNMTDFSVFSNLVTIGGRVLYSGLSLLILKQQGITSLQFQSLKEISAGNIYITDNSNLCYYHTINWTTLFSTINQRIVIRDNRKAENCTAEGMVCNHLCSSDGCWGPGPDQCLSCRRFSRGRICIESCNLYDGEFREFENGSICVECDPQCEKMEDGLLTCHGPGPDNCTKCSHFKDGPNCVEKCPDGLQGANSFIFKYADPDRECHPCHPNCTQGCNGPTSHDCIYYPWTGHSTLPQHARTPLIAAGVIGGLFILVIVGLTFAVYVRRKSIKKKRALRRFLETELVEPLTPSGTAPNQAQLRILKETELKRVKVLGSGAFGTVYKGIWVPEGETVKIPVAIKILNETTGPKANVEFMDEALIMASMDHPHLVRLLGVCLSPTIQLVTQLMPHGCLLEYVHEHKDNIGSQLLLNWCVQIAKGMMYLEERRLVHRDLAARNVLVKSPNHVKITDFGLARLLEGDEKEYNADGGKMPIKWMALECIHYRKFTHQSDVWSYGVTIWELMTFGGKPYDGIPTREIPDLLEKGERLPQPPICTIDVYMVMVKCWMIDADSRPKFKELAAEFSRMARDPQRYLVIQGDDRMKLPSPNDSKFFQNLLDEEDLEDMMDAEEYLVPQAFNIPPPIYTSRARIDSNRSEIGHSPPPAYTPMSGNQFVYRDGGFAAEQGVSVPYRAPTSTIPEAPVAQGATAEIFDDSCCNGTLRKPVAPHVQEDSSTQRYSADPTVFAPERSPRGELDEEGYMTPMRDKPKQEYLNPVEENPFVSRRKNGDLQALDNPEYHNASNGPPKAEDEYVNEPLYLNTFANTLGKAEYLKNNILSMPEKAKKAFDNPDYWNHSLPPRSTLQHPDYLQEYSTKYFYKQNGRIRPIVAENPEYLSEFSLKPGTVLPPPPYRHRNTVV
CDK9/cyclin T1, sequence (O60563 whole entry): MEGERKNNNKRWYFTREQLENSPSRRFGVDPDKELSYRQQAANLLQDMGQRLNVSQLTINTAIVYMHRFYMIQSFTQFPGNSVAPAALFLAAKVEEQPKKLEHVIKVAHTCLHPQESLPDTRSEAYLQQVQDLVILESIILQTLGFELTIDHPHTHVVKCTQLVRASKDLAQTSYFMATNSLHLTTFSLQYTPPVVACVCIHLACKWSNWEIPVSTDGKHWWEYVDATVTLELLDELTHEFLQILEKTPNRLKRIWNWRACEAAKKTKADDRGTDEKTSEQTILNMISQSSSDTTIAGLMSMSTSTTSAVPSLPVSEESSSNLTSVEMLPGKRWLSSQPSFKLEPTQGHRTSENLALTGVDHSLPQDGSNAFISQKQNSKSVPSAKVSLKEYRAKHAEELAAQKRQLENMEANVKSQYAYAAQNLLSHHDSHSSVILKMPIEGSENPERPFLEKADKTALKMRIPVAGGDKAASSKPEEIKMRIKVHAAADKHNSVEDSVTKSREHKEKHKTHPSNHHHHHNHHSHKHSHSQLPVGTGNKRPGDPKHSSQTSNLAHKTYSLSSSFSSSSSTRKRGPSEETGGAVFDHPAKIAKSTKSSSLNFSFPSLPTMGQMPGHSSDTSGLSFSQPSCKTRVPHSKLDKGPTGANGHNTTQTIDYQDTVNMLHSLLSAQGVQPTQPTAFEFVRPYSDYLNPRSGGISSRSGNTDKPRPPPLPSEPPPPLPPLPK
CDK9/cyclin T1, sequence (P50750 whole entry): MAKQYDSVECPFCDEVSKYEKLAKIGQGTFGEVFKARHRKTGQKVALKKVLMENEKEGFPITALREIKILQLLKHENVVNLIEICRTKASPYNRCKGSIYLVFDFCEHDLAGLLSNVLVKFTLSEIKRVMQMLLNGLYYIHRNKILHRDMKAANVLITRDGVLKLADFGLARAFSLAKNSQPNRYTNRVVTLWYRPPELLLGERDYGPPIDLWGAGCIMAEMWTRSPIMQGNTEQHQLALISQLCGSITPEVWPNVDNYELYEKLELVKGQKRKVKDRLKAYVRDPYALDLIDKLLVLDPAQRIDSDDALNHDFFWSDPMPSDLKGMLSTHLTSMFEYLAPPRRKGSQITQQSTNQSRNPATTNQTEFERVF
Testis-specific serine/threonine-protein kinase 3, sequence (Q96PN8 whole entry, the tested form may be a part): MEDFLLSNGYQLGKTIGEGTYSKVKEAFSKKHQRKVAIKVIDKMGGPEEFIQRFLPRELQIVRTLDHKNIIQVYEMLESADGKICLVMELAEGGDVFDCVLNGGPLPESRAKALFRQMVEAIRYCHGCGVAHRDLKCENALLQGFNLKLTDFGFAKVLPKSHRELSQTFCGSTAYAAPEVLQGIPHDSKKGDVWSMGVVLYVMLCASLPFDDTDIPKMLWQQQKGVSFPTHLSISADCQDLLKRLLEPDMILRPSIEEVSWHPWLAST

CO[C@@H]1[C@H](NCCOCCOCCOCCNC(=O)CCC2=[N+]3C(=Cc4c(C)cc(C)n4[B-]3(F)F)C=C2)C[C@H]2O[C@]1(C)n1c3ccccc3c3c4c(c5c6ccccc6n2c5c31)C(=O)NC4
Kd [1]: 23 nM
Kd [2]: 16 nM
Kd [3]: 496 nM
Kd [4]: 1220 nM
Kd [5]: 38 nM
Kd [6]: 1060 nM
Kd [7]: 61 nM
Kd (Activated CDC42 kinase 1): 36 nM
Kd [8]: 8 nM
Kd [9]: 27 nM
Kd [10]: 948 nM
Kd [11]: 263 nM
Kd [12]: 16 nM
Kd [13]: 380 nM
Kd [14]: 369 nM
Kd [15]: 121 nM
Kd [16]: 109 nM
Kd [17]: 8 nM
Kd (CDK9/cyclin T1): 162 nM
Kd [18]: 28 nM
Kd [19]: 33 nM
Kd [20]: 41 nM
Kd [21]: 13 nM
Kd [22]: 107 nM

CO[C@@H]1[C@H](N(C)CCOCCOCCOCCNC(=O)CCC2=[N+]3C(=Cc4c(C)cc(C)n4[B-]3(F)F)C=C2)C[C@H]2O[C@]1(C)n1c3ccccc3c3c4c(c5c6ccccc6n2c5c31)C(=O)NC4
Kd [1]: 75 nM
Kd [2]: 36 nM
Kd [3]: 798 nM
Kd [4]: 1770 nM
Kd [5]: 53 nM
Kd [6]: 1460 nM
Kd [7]: 78 nM
Kd (Activated CDC42 kinase 1): 42 nM
Kd [8]: 9 nM
Kd [9]: 30 nM
Kd [10]: 1020 nM
Kd [11]: 280 nM
Kd [12]: 14 nM
Kd [13]: 330 nM
Kd [14]: 298 nM
Kd [15]: 97 nM
Kd [16]: 85 nM
Kd [17]: 6 nM
Kd (CDK9/cyclin T1): 116 nM
Kd [18]: 19 nM
Kd [19]: 20 nM
Kd [20]: 25 nM
Kd [21]: 6 nM
Kd [22]: 40 nM
